The values that follow are results of earlier work, collected in article PMC8391575, “Identification of Novel Cathepsin B Inhibitors with Implications in Alzheimer’s Disease: Computational Refining and Biochemical Evaluation” (Cells, 2021).

In the series the test system is cathepsin B. As to conditions: cited from earlier work.
[1] abbreviates: Table S1, read-out: IC50: half maximal inhibitory concentration.
Setting [2] is: class of the experimental IC50, read-out: Activity Scale Experimental.

Where two headings read alike, the source gives them in different places. Where a SMILES comes first, the peptide text is derived from it.

In the case of `COc1cc(O)c2c(=O)cc(-c3ccc(O)c(-c4c(O)cc(O)c5c(=O)cc(-c6ccc(O)cc6)oc45)c3)oc2c1` [Compound N21, 5,7-dihydroxy-8-[2-hydroxy-5-(5-hydroxy-7-methoxy-4-oxochromen-2-yl)phenyl]-2-(4-hydroxyphenyl)chromen-4-one], the “pIC50 Experimental” value (Table 4) is reported as 5.77. For the same molecule, the IC50 under setting [1] was 1680 nM and the IC50 under setting [2] was 300 to 2500 nM.

In the case of `Cn1ncnc2c(=O)n(C)c(=O)nc1-2` [Compound N22, 1,6-dimethylpyrimido[5,4-e][1,2,4]triazine-5,7-dione], the “pIC50 Experimental” value (Table 4) is 7.34. Under setting [2], the IC50 was under 300 nM.

With `CCCNC(=O)[C@H]1OC1C(=O)N[C@H](C(=O)N1CCC[C@H]1C(=O)O)[C@@H](C)CC` (stereo partly drawn) [Compound S1, (2S)-1-[(2S,3S)-3-methyl-2-[[(3S)-3-(propylcarbamoyl)oxirane-2-carbonyl]amino]pentanoyl]pyrrolidine-2-carboxylic acid], the “pIC50 Experimental” value (Table 4) is […]. For the same molecule, the IC50 under setting [2] was […].

Turning to `CCOC(=O)[C@H]1O[C@@H]1C(=O)N[C@H](C(=O)N1CCC[C@H]1C(=O)O)[C@@H](C)CC` [Compound S2, (2S)-1-[(2S,3S)-2-[[(2S,3S)-3-ethoxycarbonyloxirane-2-carbonyl]amino]-3-methylpentanoyl]pyrrolidine-2-carboxylic acid], the “pIC50 Experimental” value (Table 4) was 8.55. Further, under setting [2], the IC50 is under 300 nM.

With `CC(=O)NC(CC(C)C)C(=O)NC(C(=O)NC(C=O)CCCCN)C(C)C` (stereo not drawn) [Compound S3, 2-acetamido-N-[1-[(6-amino-1-oxohexan-2-yl)amino]-3-methyl-1-oxobutan-2-yl]-4-methylpentanamide] (Ac-Leu-Val-Lys-aldehyde; configuration not given here), the “pIC50 Experimental” value (Table 4) is reported as 8.4. Moreover, the IC50 under setting [2] was under 300 nM.

As to `CC(NC(=O)C(Cc1ccccc1)NC(=O)OCc1ccccc1)C([O-])=C[N+]#N` (centres unmarked) [Compound S4, 1-diazonio-3-[[3-phenyl-2-(phenylmethoxycarbonylamino)propanoyl]amino]but-1-en-2-olate], under “Table 4”, the “pIC50 Experimental” value is reported as 8.03. Further, under setting [2], the IC50 was under 300 nM.

On to `Nc1nonc1-c1nc2ccccc2n1Cc1ccc(F)cc1` [Compound S5, 4-[1-[(4-fluorophenyl)methyl]benzimidazol-2-yl]-1,2,5-oxadiazol-3-amine], for which the “pIC50 Experimental” value (Table 4) is 4.47. For the same molecule, under setting [2], the IC50 is over 2500 nM.

As for `Cc1ccc(S(=O)(=O)n2nc(OC(=O)c3cccs3)cc2N)cc1` [Compound S7, [5-amino-1-(4-methylphenyl)sulfonylpyrazol-3-yl] thiophene-2-carboxylate], the “pIC50 Experimental” value (Table 4) is recorded as 5.7. The IC50 is, setting by setting: under setting [1], 1990 nM; under setting [2], 300 to 2500 nM.

`COc1ccc(S(=O)(=O)n2nc(OC(=O)c3ccc(C)cc3)cc2N)cc1` [Compound S8]: the “pIC50 Experimental” value (Table 4) is reported as 4.91. The IC50 under setting [2] was over 2500 nM.

Take `CCn1nc(-c2ccccc2)nc2c(=O)n(C)c(=O)nc1-2` [Compound S9, 1-ethyl-6-methyl-3-phenylpyrimido[5,4-e][1,2,4]triazine-5,7-dione]: the “pIC50 Experimental” value is 7.15. Further, where the note is “read-out: Activity Scale Experimental”, the IC50 is under 300 nM.

In the case of `Nc1cc(OC(=O)c2ccco2)nn1S(=O)(=O)c1ccc(F)cc1` [Compound S10, [5-amino-1-(4-fluorophenyl)sulfonylpyrazol-3-yl] furan-2-carboxylate], where the note is “Table 4”, the “pIC50 Experimental” value is 5.9. Also, the IC50 under setting [2] is 300 to 2500 nM.

Turning to `O=C(OC(C(=O)NCc1cccs1)c1ccccn1)c1cccs1` (centres unmarked) [Compound S11, [2-oxo-1-pyridin-2-yl-2-(thiophen-2-ylmethylamino)ethyl]thiophene-2-carboxylate], the “pIC50 Experimental” value (Table 4) is 5.2. Also, the IC50 under setting [2] was over 2500 nM.

Consider `Cc1ccc(S(=O)(=O)n2nc(OC(=O)c3ccco3)cc2N)cc1` [Compound S12, [5-amino-1-(4-methylphenyl)sulfonylpyrazol-3-yl] furan-2-carboxylate], for which, where the note is “Table 4”, the “pIC50 Experimental” value is on record as 5.76. The IC50 reads like this: under setting [1], 1750 nM; under setting [2], 300 to 2500 nM.
